Source: ChEMBL document CHEMBL5465560, “Selectivity Literature for EUbOPEN Chemogenomic Library” (2024)

Columns and labels:
[1] = target: T1, cAMP-dependent protein kinase catalytic subunit PRKX (Homo sapiens) (UniProt P51817); experiment: Selectivity interaction (KinomeScan (DiscoverX)) EUB0000695a PRKX; details: at 100 nM
T1 sequence (whole entry): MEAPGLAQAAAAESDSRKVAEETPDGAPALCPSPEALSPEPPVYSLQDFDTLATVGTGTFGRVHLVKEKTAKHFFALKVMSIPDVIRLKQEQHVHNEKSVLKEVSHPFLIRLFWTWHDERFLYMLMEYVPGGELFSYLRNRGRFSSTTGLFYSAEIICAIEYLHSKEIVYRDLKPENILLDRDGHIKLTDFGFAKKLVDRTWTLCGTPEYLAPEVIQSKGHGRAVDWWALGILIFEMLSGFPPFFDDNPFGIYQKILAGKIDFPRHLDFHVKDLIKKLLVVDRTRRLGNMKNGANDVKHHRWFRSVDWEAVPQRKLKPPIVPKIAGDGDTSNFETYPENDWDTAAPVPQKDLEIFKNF

[2] = target: Cyclin-dependent kinase 4/cyclin D1 (Homo sapiens) (UniProt P11802+P24385); experiment: (§1) Selectivity interaction (KinomeScan (DiscoverX)) EUB0000666a CDK4; format: protein-complex assay; details: at 10 µM
[3] = target: CDK4/Cyclin D3 (Homo sapiens) (UniProt P11802+P30281); experiment: as §1; format: protein-complex assay; details: at 10 µM
[4] = target: Melatonin receptor type 1A (Homo sapiens) (UniProt P48039); experiment: Selectivity interaction (Eurofins CEREP Diversity Profile (receptors and ion channels)) EUB0000279b MTNR1A; details: at 10 µM
Sequence of Melatonin receptor type 1A (Homo sapiens) (P48039 whole entry): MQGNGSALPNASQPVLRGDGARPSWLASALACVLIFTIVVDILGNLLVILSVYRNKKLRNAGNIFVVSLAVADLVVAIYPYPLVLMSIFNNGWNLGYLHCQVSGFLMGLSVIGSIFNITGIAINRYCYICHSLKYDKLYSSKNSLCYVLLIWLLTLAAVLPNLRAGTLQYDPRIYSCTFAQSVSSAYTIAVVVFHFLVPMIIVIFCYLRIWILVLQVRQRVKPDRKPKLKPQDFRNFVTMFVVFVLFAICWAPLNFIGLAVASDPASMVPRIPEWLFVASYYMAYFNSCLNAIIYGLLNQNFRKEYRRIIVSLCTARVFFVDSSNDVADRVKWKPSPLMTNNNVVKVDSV

[5] = target: Mitogen-activated protein kinase kinase kinase 9 (Homo sapiens) (UniProt P80192); experiment: Selectivity interaction (ProQinase) EUB0000171b MAP3K9
Sequence of Mitogen-activated protein kinase kinase kinase 9 (Homo sapiens) (P80192 whole entry, looked up): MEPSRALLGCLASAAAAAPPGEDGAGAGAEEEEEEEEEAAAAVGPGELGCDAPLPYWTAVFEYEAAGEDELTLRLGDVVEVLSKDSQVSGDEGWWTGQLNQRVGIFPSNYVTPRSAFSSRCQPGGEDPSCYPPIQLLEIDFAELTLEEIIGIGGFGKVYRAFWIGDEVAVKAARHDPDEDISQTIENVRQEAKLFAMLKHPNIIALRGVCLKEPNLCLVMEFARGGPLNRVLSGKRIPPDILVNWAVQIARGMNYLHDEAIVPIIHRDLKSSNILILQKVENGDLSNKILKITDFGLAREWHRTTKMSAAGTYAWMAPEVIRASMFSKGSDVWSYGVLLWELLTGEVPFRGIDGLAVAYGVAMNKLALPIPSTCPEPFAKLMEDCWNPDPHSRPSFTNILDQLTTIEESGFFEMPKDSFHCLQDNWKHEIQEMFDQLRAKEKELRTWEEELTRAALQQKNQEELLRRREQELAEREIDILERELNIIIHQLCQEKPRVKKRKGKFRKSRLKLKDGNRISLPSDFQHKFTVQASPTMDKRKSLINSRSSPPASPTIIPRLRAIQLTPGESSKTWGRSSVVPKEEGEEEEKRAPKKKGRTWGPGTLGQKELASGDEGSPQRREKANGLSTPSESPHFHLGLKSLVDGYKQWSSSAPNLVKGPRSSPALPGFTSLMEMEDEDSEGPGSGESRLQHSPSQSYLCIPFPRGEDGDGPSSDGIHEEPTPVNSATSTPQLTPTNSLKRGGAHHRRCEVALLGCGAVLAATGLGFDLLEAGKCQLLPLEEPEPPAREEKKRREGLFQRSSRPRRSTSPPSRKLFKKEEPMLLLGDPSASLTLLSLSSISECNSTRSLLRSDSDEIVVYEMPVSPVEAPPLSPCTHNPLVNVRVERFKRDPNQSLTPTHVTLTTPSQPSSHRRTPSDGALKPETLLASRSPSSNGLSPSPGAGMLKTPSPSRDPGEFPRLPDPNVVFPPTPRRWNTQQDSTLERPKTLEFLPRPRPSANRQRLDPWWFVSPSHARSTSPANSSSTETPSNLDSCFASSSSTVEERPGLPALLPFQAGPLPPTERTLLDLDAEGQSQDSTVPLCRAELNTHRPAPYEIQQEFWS

[6] = target: Dual specificity mitogen-activated protein kinase kinase 2 (Homo sapiens) (UniProt P36507); experiment: Selectivity interaction (KinomeScan (DiscoverX)) EUB0000607a MAP2K2; details: at 10 µM
Sequence of Dual specificity mitogen-activated protein kinase kinase 2 (Homo sapiens) (P36507 whole entry): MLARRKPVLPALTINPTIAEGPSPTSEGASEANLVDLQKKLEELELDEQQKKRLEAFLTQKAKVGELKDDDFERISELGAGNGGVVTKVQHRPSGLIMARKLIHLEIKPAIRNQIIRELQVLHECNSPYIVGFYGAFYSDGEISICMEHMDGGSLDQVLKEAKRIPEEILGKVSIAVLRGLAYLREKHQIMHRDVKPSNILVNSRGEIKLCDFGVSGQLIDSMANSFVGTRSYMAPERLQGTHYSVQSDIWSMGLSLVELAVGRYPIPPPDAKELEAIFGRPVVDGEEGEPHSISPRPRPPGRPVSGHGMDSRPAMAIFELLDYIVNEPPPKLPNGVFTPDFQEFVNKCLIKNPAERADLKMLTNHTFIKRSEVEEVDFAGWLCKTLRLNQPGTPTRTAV

[7] = target: T2, Tyrosine-protein kinase ZAP-70 (Homo sapiens) (UniProt P43403); experiment: Selectivity interaction (SelectScreen profiling (Invitrogen)) EUB0000607a ZAP70; details: at 2 µM
T2 sequence (whole entry): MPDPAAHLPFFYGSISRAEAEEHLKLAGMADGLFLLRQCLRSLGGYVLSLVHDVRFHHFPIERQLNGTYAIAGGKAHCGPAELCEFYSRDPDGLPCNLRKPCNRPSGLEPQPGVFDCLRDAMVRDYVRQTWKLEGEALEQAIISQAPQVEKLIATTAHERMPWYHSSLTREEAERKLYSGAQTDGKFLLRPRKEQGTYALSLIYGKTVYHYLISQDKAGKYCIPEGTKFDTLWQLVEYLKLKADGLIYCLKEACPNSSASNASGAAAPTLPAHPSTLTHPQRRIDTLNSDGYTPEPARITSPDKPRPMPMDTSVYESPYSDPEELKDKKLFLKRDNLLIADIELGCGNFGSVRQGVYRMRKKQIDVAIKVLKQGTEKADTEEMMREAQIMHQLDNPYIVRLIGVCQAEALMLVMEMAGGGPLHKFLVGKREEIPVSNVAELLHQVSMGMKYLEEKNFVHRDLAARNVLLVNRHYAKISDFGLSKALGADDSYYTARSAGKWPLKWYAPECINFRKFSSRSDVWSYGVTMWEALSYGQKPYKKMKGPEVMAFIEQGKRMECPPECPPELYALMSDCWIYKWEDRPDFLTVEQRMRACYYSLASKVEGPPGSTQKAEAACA

[8] = target: Proto-oncogene tyrosine-protein kinase Src (Homo sapiens, UniProt P12931); experiment: Selectivity interaction (KinomeScan (DiscoverX)) EUB0000655a SRC; details: at 10 µM
Sequence of Proto-oncogene tyrosine-protein kinase Src (P12931 2-536 limits assumed): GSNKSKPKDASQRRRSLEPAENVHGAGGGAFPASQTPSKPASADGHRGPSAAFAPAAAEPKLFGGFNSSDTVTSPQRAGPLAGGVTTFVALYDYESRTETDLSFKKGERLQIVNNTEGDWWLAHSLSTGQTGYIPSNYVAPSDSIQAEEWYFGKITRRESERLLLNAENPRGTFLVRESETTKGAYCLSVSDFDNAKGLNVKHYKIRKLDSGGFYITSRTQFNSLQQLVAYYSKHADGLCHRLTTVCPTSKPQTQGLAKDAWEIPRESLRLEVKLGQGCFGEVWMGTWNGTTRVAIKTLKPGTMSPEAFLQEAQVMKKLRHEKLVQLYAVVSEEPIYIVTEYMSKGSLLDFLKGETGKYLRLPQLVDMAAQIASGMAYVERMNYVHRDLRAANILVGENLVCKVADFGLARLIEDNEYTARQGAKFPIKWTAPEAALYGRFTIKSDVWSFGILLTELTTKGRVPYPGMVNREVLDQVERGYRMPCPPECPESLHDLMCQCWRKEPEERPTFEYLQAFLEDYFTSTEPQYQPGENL

[9] = target: T3, Interleukin-1 receptor-associated kinase 4 (Homo sapiens) (UniProt Q9NWZ3); experiment: Selectivity interaction (KinomeScan (DiscoverX)) EUB0000092b IRAK4; details: at 10 µM
T3 sequence (whole entry): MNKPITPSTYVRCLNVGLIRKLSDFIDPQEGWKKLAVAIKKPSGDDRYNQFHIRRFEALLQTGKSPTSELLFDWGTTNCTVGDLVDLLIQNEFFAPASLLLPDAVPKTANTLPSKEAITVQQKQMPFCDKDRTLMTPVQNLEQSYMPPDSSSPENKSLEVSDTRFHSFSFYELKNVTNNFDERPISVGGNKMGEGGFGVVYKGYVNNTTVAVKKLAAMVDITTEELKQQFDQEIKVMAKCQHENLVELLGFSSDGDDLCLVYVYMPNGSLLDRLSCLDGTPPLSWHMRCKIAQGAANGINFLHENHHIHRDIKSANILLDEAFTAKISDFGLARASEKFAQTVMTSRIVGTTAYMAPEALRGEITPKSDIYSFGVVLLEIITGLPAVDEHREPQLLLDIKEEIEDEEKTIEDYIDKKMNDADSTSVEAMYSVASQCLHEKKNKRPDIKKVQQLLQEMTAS

Cc1cc(F)c(C(=O)Nc2cccc(-c3nncn3C(C)C)n2)cc1-n1cnc(C2CC2)c1
% of control [1]: 100%

O=C(NOC[C@H](O)CO)c1ccc(F)c(F)c1Nc1ccc(I)cc1F
% of control [2]: 93% | % of control [3]: 84%

CC(=O)c1cc(-c2ccccc2OCC2CC2)c2ncccn12
% of control [4]: 46%

C=CC(=O)Nc1cccc(C(=O)Nc2ccc(Nc3cc(-c4[nH]c(SC)nc4C)ccn3)cc2)c1
% of control ([5]; at 1 µM): 80% | % of control ([5]; at 5 µM): 45%

CNC(=O)Nc1ccc(-c2nc(N3CC4CCC(C3)O4)c3cnn(C4CCC5(CC4)OCCO5)c3n2)cc1
% of control [6]: 100% | % of inhibition [7]: 7%

CN(C)CCOc1ccc(-c2nc(-c3ccncc3)c(-c3ccc4c(c3)CC/C4=N\O)[nH]2)cc1
% of control [8]: 77%

CCC(=O)N1CCN(c2ccc(-n3c(=O)ccc4cnc5ccc(-c6cnc7ccccc7c6)cc5c43)cc2C(F)(F)F)CC1
% of control [9]: 90%
